# Source: EPA's ToxValDB 9.5 (doi:10.2903/j.efsa.2020.5986)
# Assays:
# Tagia sp. = conditions: chronic/long-term; mortality
# Hypoaspis aculeifer = conditions: acute; duration: 14 days; mortality
# Oncorhynchus mykiss = conditions: acute; duration: 96 hours; mortality
# Danio rerio = conditions: subchronic; duration: 30 days; growth
# Colinus virginianus = conditions: oral
# Rattus norvegicus = conditions: acute; oral; mortality
# Daphnia magna = conditions: chronic/long-term; duration: 21 days; reproduction
# Apis mellifera = conditions: acute, mortality
smiles,measurement,setting,value
CC(C)=CCC/C(C)=C/CC/C(C)=C/CO [Farnesol],NOEC,Tagia sp.,≥ 1000 mg/kg
same,NOEC,Hypoaspis aculeifer,1000 mg/kg
same,LC50,Oncorhynchus mykiss,> 0.134 µg/mL
same,NOEC,Danio rerio,≥ 0.138 mg/L
same,LD50,"Colinus virginianus; acute, mortality",> 2000 mg/kg-day
same,NOEC,"Colinus virginianus; reproduction developmental, diet",≥ 111 mg/kg-day
same,LC50,Rattus norvegicus,> 2000 mg/kg-day
same,NOEC,Daphnia magna,3 mg/L
same,LD50,Apis mellifera; dermal,> 100 µg/piece
same,LD50,"Apis mellifera; oral, unspecified",> 100 µg/piece
